Reference: ChEMBL document CHEMBL4270602, “Design, synthesis, docking studies and biological screening of 2-thiazolyl substituted -2,3-dihydro-1H-naphtho[1,2-e][1,3]oxazines as potent HIV-1 reverse transcriptase inhibitors” (Eur J Med Chem, 2018)

Key:
[1] = Therapeutic index, ratio of CC50 for human CEM-GFP cells to IC50 for HIV-1 NL4-3 infected in human CEM-GFP cells; type: toxicity, cell-based; conditions: read-out: Ratio CC50/IC50
[2] = test system: Human immunodeficiency virus 1; assay: Antiviral activity against Human immunodeficiency virus 1 NL4-3 infected in human CEM-GFP cells after 7 days by p24 ELISA; type: functional, organism-based; conditions: Human immunodeficiency virus 1, NL4-3, CEM-GFP, 168 h
[3] = target: Human immunodeficiency virus type 1 reverse transcriptase (Human immunodeficiency virus 1, UniProt Q72547); assay: Inhibition of recombinant HIV-1 reverse transcriptase RNA-dependent DNA polymerase activity using poly(rA)/oligo(dT)16 as template/primer preincubated for 5 to 10 mins followed by template/primer addition and measured after 16 hrs by colorimetric assay
[4] = Cytotoxicity against human CEM-GFP cells after 48 hrs by MTT assay; type: cell-based
[5] = target: Human immunodeficiency virus type 1 reverse transcriptase (Human immunodeficiency virus 1) (UniProt Q72547); assay: Potency index, ratio of inophyllym B EC50 to compound EC50 for inhibition of recombinant HIV-1 reverse transcriptase RNA-dependent DNA polymerase activity
[6] = target: Human immunodeficiency virus type 1 reverse transcriptase (Human immunodeficiency virus 1) (UniProt Q72547); assay: Potency index, ratio of efavirenz EC50 to compound EC50 for inhibition of recombinant HIV-1 reverse transcriptase RNA-dependent DNA polymerase activity

| SMILES | IC50 [2] [nM] | EC50 [3] [nM] | Ratio EC50 [5] | Ratio EC50 [6] | selectivity ratio [1] | CC50 at 48 h [4] [nM] |
| --- | --- | --- | --- | --- | --- | --- |
| Cc1cn([C@H]2C[C@H](N=[N+]=[N-])[C@@H](CO)O2)c(=O)[nH]c1=O [ZIDOVUDINE] | 55.7 | – | – | – | 236 | 13100 |
| COc1ccc2c3c(ccc2c1)OCN(c1nc(-c2ccc(C(F)(F)F)cc2)cs1)C3 | 82.7 | 66 | – | 2.5 | 318 | 26300 |
| COc1ccc2c3c(ccc2c1)OCN(c1nc(-c2ccc(F)cc2)cs1)C3 | 253 | 192 | – | – | 96.2 | 24300 |
| O=C1Nc2ccc(Cl)cc2[C@@](C#CC2CC2)(C(F)(F)F)O1 [EFAVIRENZ] | 163 | – | – | – | – | 40500 |

More lines, main results first:

| IC50 [2] [nM] | EC50 [3] [nM] | Ratio EC50 [5] | Ratio EC50 [6] | SMILES | selectivity ratio [1] | CC50 at 48 h [4] [nM] |
| --- | --- | --- | --- | --- | --- | --- |
| 239 | 210 | – | – | Fc1ccc(-c2csc(N3COc4ccc5ccccc5c4C3)n2)cc1 | 106 | 25300 |
| 95.5 | 79 | 3 | – | FC(F)(F)c1ccc(-c2csc(N3COc4ccc5ccccc5c4C3)n2)cc1 | 258 | 24700 |
| – | 225 | – | – | C[C@H]1[C@H](O)c2c(c3c(c4c(-c5ccccc5)cc(=O)oc24)OC(C)(C)C=C3)O[C@@H]1C | – | – |
